Where a name gives a salt, the structure may show the parent alone.
Key:
[1] = target: T1, human B1R receptor (bradykinin 1 receptor) (Homo sapiens, UniProt P46663); assay: FLIPR Ca2+ assay (Fluo-4) on CHO K1 cells stably transfected with the human B1R gene; % activation and % inhibition at 10 μM; type: cell-based; conditions: CHO K1 hB1R cells, Ca2+ inflow after 0.5 nM Lys-Des-Arg9-bradykinin; for inhibition at 10 µM: CHO-K1, test substance 10 μM, read-out: B1R antagonism, human [10 μM] % inhibition; for B1R antagonism, human [10 μM] % inhibition: test substance 10 μM
T1 construct: host or cells: CHO K1 cells (hB1R cells)
T1 sequence (P46663 1-353): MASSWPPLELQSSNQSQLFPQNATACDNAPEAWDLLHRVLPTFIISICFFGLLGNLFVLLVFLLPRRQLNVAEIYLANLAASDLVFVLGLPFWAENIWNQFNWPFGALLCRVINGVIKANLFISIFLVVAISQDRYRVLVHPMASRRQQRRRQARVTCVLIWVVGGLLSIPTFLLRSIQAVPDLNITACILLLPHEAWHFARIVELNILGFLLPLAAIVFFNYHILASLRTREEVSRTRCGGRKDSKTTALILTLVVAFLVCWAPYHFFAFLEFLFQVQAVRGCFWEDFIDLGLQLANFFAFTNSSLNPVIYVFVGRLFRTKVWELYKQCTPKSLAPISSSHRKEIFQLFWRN
In short: (§1)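 CHO K1 cells stably expressing human or rat B1R, Fluo-4 loaded, read by FLIPR (peak fluorescence). Compound at 10 µM first gives % activation versus agonist; after 10 min, agonist (human: 0.5 nM Lys-Des-Arg9-bradykinin; rat: 100 nM Des-Arg9-bradykinin) gives % inhibition relative to maximal inhibition.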

[2] = target: T2, B1R receptor of the rat (bradykinin 1 receptor) (Rattus norvegicus, UniProt P97583); assay: FLIPR Ca2+ assay (Fluo-4) on CHO K1 cells stably transfected with the B1R gene of the rat; % activation and % inhibition at 10 μM; type: cell-based; conditions: CHO K1 rB1R cells, Ca2+ inflow after 100 nM Des-Arg9-bradykinin; for inhibition at 10 µM: CHO-K1, test substance 10 μM, read-out: B1R antagonism, rat [10 μM] % inhibition; for B1R antagonism, rat [10 μM] % inhibition: test substance 10 μM
T2 construct: host or cells: CHO K1 cells (rB1R cells)
T2 sequence (P97583 1-337): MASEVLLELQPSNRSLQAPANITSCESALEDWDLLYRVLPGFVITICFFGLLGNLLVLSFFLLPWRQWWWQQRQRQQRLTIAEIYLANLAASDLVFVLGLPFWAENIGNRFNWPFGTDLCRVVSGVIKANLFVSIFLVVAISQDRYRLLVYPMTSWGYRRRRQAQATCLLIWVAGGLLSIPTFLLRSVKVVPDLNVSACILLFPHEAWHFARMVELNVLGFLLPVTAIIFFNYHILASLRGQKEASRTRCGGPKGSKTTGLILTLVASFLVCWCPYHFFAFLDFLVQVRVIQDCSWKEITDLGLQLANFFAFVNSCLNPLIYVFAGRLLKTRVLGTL
In short: as §1

Question: How did the inhibition at 10 µM [1] turn out when `O=C(COCC1Cc2ccccc2CN1S(=O)(=O)c1ccccc1)N1CCC(O)(c2ccccn2)CC1` (stereo not drawn) [Example 73, 2-(2-phenylsulfonyl-1,2,3,4-tetrahydro-isoquinolin-3-ylmethoxy)-1-(4′-hydroxy-3′,4′,5′,6′-tetrahydro-2′H-[2,4′]bipyridinyl-1′-yl)-ethanone] was run?
Answer: -7.27%

Question: What about the inhibition at 10 µM [2] of the same molecule?
Answer: 14.4%

Question: How did the inhibition at 10 µM [1] turn out when `COc1ccc(S(=O)(=O)N2CCC(OCC(=O)N3CCC(O)(c4ccccn4)CC3)(c3ccccc3)CC2)cc1` [Example 74, 1-(4′-hydroxy-3′,4′,5′,6′-tetrahydro-2′H-[2,4′]bipyridinyl-1′-yl)-2-[1-(4-methoxy-phenylsulfonyl)-4-phenyl-piperidin-4-yloxy]-ethanone] was run?
Answer: -7.3%

Question: And the inhibition at 10 µM [2]?
Answer: -3.17%

Question: `O=C(COCC1Cc2ccccc2CN1S(=O)(=O)c1ccc(F)cc1)N1CCC(O)(Cc2ccccc2)CC1` (stereo not drawn) [Example 75, 1-(4-benzyl-4-hydroxy-piperidin-1-yl)-2-[2-(4-fluoro-phenylsulfonyl)-1,2,3,4-tetrahydro-isoquinolin-3-ylmethoxy]-ethanone] was tested. Which inhibition at 10 µM [1] did it give?
Answer: 11%

Question: What about the inhibition at 10 µM [2] of the same molecule?
Answer: 19.2%

Question: What does the source list for `O=C(COCC1Cc2ccccc2CN1S(=O)(=O)c1ccccc1)N1CCC(O)(Cc2ccccc2)CC1` (stereo not drawn) [Example 77, 2-(2-phenylsulfonyl-1,2,3,4-tetrahydro-isoquinolin-3-ylmethoxy)-1-(4-benzyl-4-hydroxy-piperidin-1-yl)-ethanone]?
Answer: inhibition at 10 µM [1]: 13.3%; inhibition at 10 µM [2]: -0.12%

Question: For `O=C(COCC1Cc2ccccc2CN1S(=O)(=O)c1ccc(Cl)c(Cl)c1)N1CCC(O)(c2ccccc2)CC1` (stereo not drawn) [Example 78, 2-((2-(3,4-dichlorophenylsulfonyl)-1,2,3,4-tetrahydroisoquinolin-3-yl)methoxy)-1-(4-hydroxy-4-phenylpiperidin-1-yl)ethanone], which inhibition at 10 µM [1] is on record?
Answer: 13.7%

Question: And the inhibition at 10 µM [2]?
Answer: 12.7%

Question: How did the inhibition at 10 µM [1] turn out when `O=C(COCC1Cc2ccccc2CN1S(=O)(=O)c1ccc(Cl)cc1Cl)N1CCC(O)(c2ccc(Cl)cc2)CC1` (stereo not drawn) [Example 79, 1-(4-(4-chlorophenyl)-4-hydroxypiperidin-1-yl)-2-((2-(2,4-dichlorophenylsulfonyl)-1,2,3,4-tetrahydroisoquinolin-3-yl)methoxy)ethanone] was run?
Answer: 47.3%

Question: And the inhibition at 10 µM [2]?
Answer: 70.7%

Question: What does the source list for `O=C(COCC1Cc2ccccc2CN1S(=O)(=O)c1ccc(Cl)cc1Cl)N1CCC(O)(c2ccccc2)CC1` (stereo not drawn) [Example 80, 2-((2-(2,4-dichlorophenylsulfonyl)-1,2,3,4-tetrahydroisoquinolin-3-yl)methoxy)-1-(4-hydroxy-4-phenylpiperidin-1-yl)ethanone]?
Answer: inhibition at 10 µM [1]: 62.3%; inhibition at 10 µM [2]: 82.5%

Question: `O=C(COCC1Cc2ccccc2CN1S(=O)(=O)c1ccc(Cl)cc1Cl)N1CCC(O)(Cc2ccccc2)CC1` (stereo not drawn) [Example 81, 1-(4-benzyl-4-hydroxy-piperidin-1-yl)-2-[2-(2,4-dichloro-phenylsulfonyl)-1,2,3,4-tetrahydro-isoquinolin-3-ylmethoxy]-ethanone] was tested. Which inhibition at 10 µM [1] did it give?
Answer: 32.9%

Question: And the inhibition at 10 µM [2]?
Answer: 62.8%

Question: `COc1ccc(S(=O)(=O)N2CCC(OCC(=O)N3CCC(O)(Cc4ccccc4)CC3)(c3ccccc3)CC2)cc1` [Example 82, 1-(4-benzyl-4-hydroxy-piperidin-1-yl)-2-[1-(4-methoxy-phenylsulfonyl)-4-phenyl-piperidin-4-yloxy]-ethanone] was tested. Which inhibition at 10 µM [1] did it give?
Answer: 9.32%

Question: What about the inhibition at 10 µM [2] of the same molecule?
Answer: 17.9%

Question: `O=C(COC1CCCCC1N(Cc1ccccc1)S(=O)(=O)c1ccc(Cl)c(Cl)c1)N1CCC(O)(c2ccc(Cl)cc2)CC1` (stereo not drawn) [Example 83, N-benzyl-3,4-dichloro-N-(2-(2-(4-(4-chlorophenyl)-4-hydroxypiperidin-1-yl)-2-oxoethoxy)cyclohexyl)phenylsulfonamide] was tested. Which inhibition at 10 µM [1] did it give?
Answer: 11.3%

Question: What about the inhibition at 10 µM [2] of the same molecule?
Answer: -12.6%

Question: For `O=C(COC1CCCCC1N(Cc1ccccc1)S(=O)(=O)c1ccc(Cl)c(Cl)c1)N1CCC(O)(Cc2ccccc2)CC1` (stereo not drawn) [Example 84, N-benzyl-N-{2-[2-(4-benzyl-4-hydroxy-piperidin-1-yl)-2-oxo-ethoxy]-cyclohexyl}-3,4-dichloro-phenylsulfonamide], which inhibition at 10 µM [1] is on record?
Answer: -0.61%

Question: And the inhibition at 10 µM [2]?
Answer: -9.47%

Question: With `COc1cc(C)c(S(=O)(=O)N2CCCCC2COCC(=O)N2CCC(O)(c3cccs3)CC2)c(C)c1` (stereo not drawn) [Example 85, 1-(4-hydroxy-4-thiophen-2-yl-piperidin-1-yl)-2-[1-(4-methoxy-2,6-dimethyl-phenylsulfonyl)-piperidin-2-ylmethoxy]-ethanone] as the molecule, how does the inhibition at 10 µM [1] read?
Answer: 106%

Question: What about the inhibition at 10 µM [2] of the same molecule?
Answer: 101%

Question: Which results are given for `COc1cc(C)c(S(=O)(=O)N(C)CCOCC(=O)N2CCC(O)(c3cccs3)CC2)c(C)c1` [Example 86, N-{2-[2-(4-hydroxy-4-thiophen-2-yl-piperidin-1-yl)-2-oxo-ethoxy]-ethyl}-4-methoxy-2,6,N-trimethyl-phenylsulfonamide]?
Answer: inhibition at 10 µM [1]: 106%; inhibition at 10 µM [2]: 102%

Question: `COc1cc(C)c(S(=O)(=O)N(C)CCOCC(=O)N2CCC(O)(c3ccncc3)CC2)c(C)c1` [Example 88, N-{2-[2-(4-hydroxy-3,4,5,6-tetrahydro-2H-[4,4′]bipyridinyl-1-yl)-2-oxo-ethoxy]-ethyl}-4-methoxy-2,6,N-trimethyl-phenylsulfonamide] was tested. Which inhibition at 10 µM [1] did it give?
Answer: 102%

Question: What about the inhibition at 10 µM [2] of the same molecule?
Answer: 103%

Question: `COc1cc(C)c(S(=O)(=O)N2CCCC2COCC(=O)N2CCC(O)(c3cccnc3)CC2)c(C)c1` (stereo not drawn) [Example 89, 1-(4′-hydroxy-3′,4′,5′,6′-tetrahydro-2′H-[3,4′]bipyridinyl-1′-yl)-2-[1-(4-methoxy-2,6-dimethyl-phenylsulfonyl)-pyrrolidin-2-ylmethoxy]-ethanone; hydrochloride] was tested. Which “B1R antagonism, human [10 μM] % inhibition” value ([1]; hydrochloride) did it give?
Answer: 104.46%

Question: What about the “B1R antagonism, rat [10 μM] % inhibition” value ([2]; hydrochloride) of the same molecule?
Answer: 100.44%

Question: What does the source list for `O=C(COCC1Cc2ccccc2CN1S(=O)(=O)c1ccccc1)N1CCC(O)(c2cccnc2)CC1` (stereo not drawn) [Example 90, 2-(2-phenylsulfonyl-1,2,3,4-tetrahydro-isoquinolin-3-ylmethoxy)-1-(4′-hydroxy-3′,4′,5′,6′-tetrahydro-2′H-[3,4′]bipyridinyl-1′-yl)-ethanone]?
Answer: inhibition at 10 µM [1]: 13.8%; inhibition at 10 µM [2]: 31.1%

Question: `O=C(COCC1Cc2ccccc2CN1S(=O)(=O)c1ccc(Cl)c(Cl)c1)N1CCC(O)(c2cccnc2)CC1` (stereo not drawn) [Example 91, 2-[2-(3,4-dichloro-phenylsulfonyl)-1,2,3,4-tetrahydro-isoquinolin-3-ylmethoxy]-1-(4′-hydroxy-3′,4′,5′,6′-tetrahydro-2′H-[3,4′]bipyridinyl-1′-yl)-ethanone] was tested. Which inhibition at 10 µM [1] did it give?
Answer: 93.7%

Question: What about the inhibition at 10 µM [2] of the same molecule?
Answer: 93.7%

Question: How did the “B1R antagonism, human [10 μM] % inhibition” value [1] turn out when `O=C(COCC1Cc2ccccc2CN1S(=O)(=O)c1ccc(Cl)cc1Cl)N1CCC(O)(c2cccnc2)CC1` (stereo not drawn) [Example 92, 2-[2-(2,4-dichloro-phenylsulfonyl)-1,2,3,4-tetrahydro-isoquinolin-3-ylmethoxy]-1-(4′-hydroxy-3′,4′,5′,6′-tetrahydro-2′H-[3,4′]bipyridinyl-1′-yl)-ethanone] was run?
Answer: 101.02%

Question: And the “B1R antagonism, rat [10 μM] % inhibition” value [2]?
Answer: 97.98%

Question: What does the source list for `CN(CCOCC(=O)N1CCC(O)(c2ccc(Cl)cc2)CC1)S(=O)(=O)c1cc(F)cc(F)c1` [Example 93, N-(2-(2-(4-(4-chlorophenyl)-4-hydroxypiperidin-1-yl)-2-oxoethoxy)ethyl)-3,5-difluoro-N-methylphenylsulfonamide]?
Answer: inhibition at 10 µM [1]: -12.1%; inhibition at 10 µM [2]: 6.49%

Question: Which results are given for `Cc1cc(C)c(S(=O)(=O)N2CCCCC2COCC(=O)N2CCC(O)(c3ccccn3)CC2)c(C)c1` (stereo not drawn) [Example 94, 1-(4′-hydroxy-3′,4′,5′,6′-tetrahydro-2′H-[2,4′]bipyridinyl-1′-yl)-2-[1-(2,4,6-trimethyl-phenylsulfonyl)-piperidin-2-ylmethoxy]-ethanone]?
Answer: inhibition at 10 µM [1]: 104%; inhibition at 10 µM [2]: 103%

Question: With `O=C(COC1CCCCC1N(Cc1ccccc1)S(=O)(=O)c1ccc(Cl)c(Cl)c1)N1CCC(O)(c2ccccn2)CC1` (stereo not drawn) [Example 95, N-benzyl-3,4-dichloro-N-{2-[2-(4′-hydroxy-3′,4′,5′,6′-tetrahydro-2′H-[2,4′]bipyridinyl-1′-yl)-2-oxo-ethoxy]-cyclohexyl}-phenylsulfonamide] as the molecule, how does the inhibition at 10 µM [1] read?
Answer: 8.92%

Question: And the inhibition at 10 µM [2]?
Answer: -0.33%

Source: patent US8580965B2, “Substituted sulfonamide compounds” (Gruenenthal GmbH, priority 2006, dated 2013)
